US20030171329A1, “Stable compositions comprising tezacitabine” (priority 2002, published 2003)

Tests used:
Assay type in all cases: physicochemical
[1] = Degradation products in HPLC chromatograms of degraded samples
From the text: The major degradation product of tezacitabine seen in HPLC chromatograms of degraded samples is cytosine. Based on this, but without limitation to any specific theory, the mechanism of degradation is believed to involve hydrolysis of the glycosidic bond between the […] ring and the sugar ring. This hydrolysis reaction is believed to occur rapidly at low pH but much less rapidly at high pH. The liberated sugar moiety is believed subsequently to undergo rapid degradation to a spectrum of products, one or more of which are highly acidic as well as being colored. The cytosine may also further degrade to acid-producing and/or color-producing species. The degradation, therefore, has a propensity to become autocatalytic, as the liberated acid species would tend to lower the pH, thus accelerating the degradation of previously undegraded tezacitabine molecules.
Degradation of tezacitabine can readily be monitored by the use of high pressure liquid chromatography (HPLC) methods which separate the drug from its degradation products and quantitate the amount of intact drug remaining in the solution. Typically such studies are performed by filling aliquots of various tezacitabine solutions into appropriate containers (e.g., stoppered glass vials or sealed ampoules) and storing these samples for various periods of time under various storage conditions. […]

[2] = Effects of pH and storage temperature on stability of FMdC solutions (Example 1, HPLC); details: for FMdC content: 1 mg/mL
Description: In this example the effects of pH and storage temperature on the stability of tezacitabine (FMdC) solutions was evaluated. FMdC solutions were made up at 1 mg/mL in aqueous sodium phosphate buffers at pH 1, 3, 5, 7 and 9, then filled in sealed glass ampoules and placed at 5°, 25°, and 45° C. FMdC content was assessed at various times using an HPLC method. The column was a PACK ODS column (YMC, Inc, Wilmington, Del.) with a mobile phase of 55/40/5 (v/v/v) 0.086M NaH2PO4 (pH 7)/0.05M 1-pentanesulfonic acid sodium salt/acetonitrile. Detection was by UV at 268 nm. Flow rate was 1.5 mL/min and injection volume was 10 μL.

[3] = Stability of FMdC solution 10 mg/mL in various buffer systems at 40° C. (Example 4, HPLC); details: for pH: 10 mg/mL
Description: In this study the stability of FMdC solution 10 mg/mL was studied in various buffer systems. FMdC solutions were made up and pH adjusted to target with sodium hydroxide. Solution samples were placed in stoppered glass vials and stored at 40° C. FMdC content was assessed at various times using the HPLC method described in Example 3 above.

## Nc1ccn([C@@H]2O[C@H](CO)[C@@H](O)/C2=C\F)c(=O)n1 [FMdC, (E)-2′-deoxy-2′-(fluoromethylene)cytidine]
[1]
  major degradation product: cytosine
[2]; sodium phosphate pH 1, 5° C., 0 days
  FMdC content: 100.0 % of initial
[2]; sodium phosphate pH 1, 5° C., 1 day
  FMdC content: 93.2 % of initial
[2]; sodium phosphate pH 1, 5° C., 14 days
  FMdC content: 70.0 % of initial
[2]; sodium phosphate pH 1, 5° C., 29 days
  FMdC content: 47.1 % of initial
[2]; sodium phosphate pH 1, 25° C., 0 days
  FMdC content: 100.0 % of initial
[2]; sodium phosphate pH 1, 25° C., 1 day
  FMdC content: 45.7 % of initial
[2]; sodium phosphate pH 1, 25° C., 7 days
  FMdC content: 4.5 % of initial
[2]; sodium phosphate pH 1, 45° C., 0 days
  FMdC content: 100.0 % of initial
[2]; sodium phosphate pH 1, 45° C., 1 day
  FMdC content: 3.9 % of initial
[2]; sodium phosphate pH 3, 5° C., 0 days
  FMdC content: 100.0 % of initial
[2]; sodium phosphate pH 3, 5° C., 1 day
  FMdC content: 89.4 % of initial
[2]; sodium phosphate pH 3, 5° C., 14 days
  FMdC content: 73.3 % of initial
[2]; sodium phosphate pH 3, 5° C., 29 days
  FMdC content: 51.7 % of initial
[2]; sodium phosphate pH 3, 25° C., 0 days
  FMdC content: 100.0 % of initial
[2]; sodium phosphate pH 3, 25° C., 1 day
  FMdC content: 50.5 % of initial
[2]; sodium phosphate pH 3, 25° C., 7 days
  FMdC content: 4.7 % of initial
[2]; sodium phosphate pH 3, 45° C., 0 days
  FMdC content: 100.0 % of initial
[2]; sodium phosphate pH 3, 45° C., 1 day
  FMdC content: 4.4 % of initial
[2]; sodium phosphate pH 5, 5° C., 0 days
  FMdC content: 100.0 % of initial
[2]; sodium phosphate pH 5, 5° C., 7 days
  FMdC content: 95.8 % of initial
[2]; sodium phosphate pH 5, 5° C., 14 days
  FMdC content: 98.2 % of initial
[2]; sodium phosphate pH 5, 5° C., 29 days
  FMdC content: 93.5 % of initial
[2]; sodium phosphate pH 5, 25° C., 0 days
  FMdC content: 100.0 % of initial
[2]; sodium phosphate pH 5, 25° C., 7 days
  FMdC content: 73.0 % of initial
[2]; sodium phosphate pH 5, 25° C., 14 days
  FMdC content: 56.3 % of initial
[2]; sodium phosphate pH 5, 25° C., 29 days
  FMdC content: 28.6 % of initial
[2]; sodium phosphate pH 5, 45° C., 0 days
  FMdC content: 100.0 % of initial
[2]; sodium phosphate pH 5, 45° C., 7 days
  FMdC content: 2.5 % of initial
[2]; sodium phosphate pH 7, 5° C., 0 days
  FMdC content: 100.0 % of initial
[2]; sodium phosphate pH 7, 5° C., 7 days
  FMdC content: 100.8 % of initial
[2]; sodium phosphate pH 7, 5° C., 14 days
  FMdC content: 100.6 % of initial
[2]; sodium phosphate pH 7, 5° C., 29 days
  FMdC content: 99.8 % of initial
[2]; sodium phosphate pH 7, 25° C., 0 days
  FMdC content: 100.0 % of initial
[2]; sodium phosphate pH 7, 25° C., 7 days
  FMdC content: 100.4 % of initial
[2]; sodium phosphate pH 7, 25° C., 14 days
  FMdC content: 99.4 % of initial
[2]; sodium phosphate pH 7, 25° C., 29 days
  FMdC content: 98.8 % of initial
[2]; sodium phosphate pH 7, 45° C., 0 days
  FMdC content: 100.0 % of initial
[2]; sodium phosphate pH 7, 45° C., 7 days
  FMdC content: 96.5 % of initial
[2]; sodium phosphate pH 7, 45° C., 14 days
  FMdC content: 92.0 % of initial
[2]; sodium phosphate pH 7, 45° C., 29 days
  FMdC content: 82.3 % of initial
[2]; sodium phosphate pH 9, 5° C., 0 days
  FMdC content: 100.0 % of initial
[2]; sodium phosphate pH 9, 5° C., 7 days
  FMdC content: 100.4 % of initial
[2]; sodium phosphate pH 9, 5° C., 14 days
  FMdC content: 100.8 % of initial
[2]; sodium phosphate pH 9, 5° C., 29 days
  FMdC content: 100.4 % of initial
[2]; sodium phosphate pH 9, 25° C., 0 days
  FMdC content: 100.0 % of initial
[2]; sodium phosphate pH 9, 25° C., 7 days
  FMdC content: 100.5 % of initial
[2]; sodium phosphate pH 9, 25° C., 14 days
  FMdC content: 99.4 % of initial
[2]; sodium phosphate pH 9, 25° C., 29 days
  FMdC content: 100.4 % of initial
[2]; sodium phosphate pH 9, 45° C., 0 days
  FMdC content: 100.0 % of initial
[2]; sodium phosphate pH 9, 45° C., 7 days
  FMdC content: 100.1 % of initial
[2]; sodium phosphate pH 9, 45° C., 14 days
  FMdC content: 98.7 % of initial
[2]; sodium phosphate pH 9, 45° C., 29 days
  FMdC content: 96.5 % of initial
[2]; low pH (pH 1 and 3), even under refrigeration
  stability in words: very unstable
[2]; pH 9, compared with pH 1 to 7
  stability in words: most stable
[3]; 20 mM TRIS, 0 mon
  pH: 9.42
[3]; 20 mM TRIS, 1 mon
  pH: 9.24
[3]; 20 mM TRIS, 2 mon
  pH: 9.05
[3]; 20 mM TRIS, 3 mon
  pH: 8.89
[3]; 20 mM TRIS, 4 mon
  pH: 8.58
[3]; 20 mM glycine, 0 mon
  pH: 9.60
[3]; 20 mM glycine, 1 mon
  pH: 9.32
[3]; 20 mM glycine, 2 mon
  pH: 9.24
[3]; 20 mM glycine, 3 mon
  pH: 9.11
[3]; 20 mM glycine, 4 mon
  pH: 8.86
[3]; 20 mM sodium phosphate, 0 mon
  pH: 9.36
[3]; 20 mM sodium phosphate, 1 mon
  pH: 8.32
[3]; 20 mM sodium phosphate, 2 mon
  pH: 7.76
[3]; 20 mM sodium phosphate, 3 mon
  pH: 7.72
[3]; 20 mM sodium phosphate, 4.7 mon
  pH: 4.65
[3]; 100 mM sodium phosphate, 0 mon
  pH: 9.44
[3]; 100 mM sodium phosphate, 1 mon
  pH: 9.14
[3]; 100 mM sodium phosphate, 2 mon
  pH: 8.69
[3]; 100 mM sodium phosphate, 3 mon
  pH: 8.47
[3]; 100 mM sodium phosphate, 4 mon
  pH: 8.18
[3]; 100 mM sodium phosphate, 6 mon
  pH: 7.80
[3]; 100 mM sodium phosphate, 9 mon
  pH: 7.14
[3]; same buffer concentrations (20 mM)
  comparison of buffers in stabilizing FMdC: glycine and TRIS are superior to phosphate
